Results on 21 molecules are retold here after patent publication US4739067A, “4-(1,2,5,6-tetrahydro-1-alkyl-3-pyridinyl)-2-thiazolamines and 4-(hexahydro-1-alkyl-3-pyridinyl)-2-thiazolamines” (priority 1986, dated 1988).

Where two headings read alike, the source gives them in different places.

The test system of test [1] is Locomotor Activity in Mouse. In words: Inhibition of Locomotor Activity in Mouse (Mouse Activity and Screen Test Procedure). The format is in vivo. The following applies: read-out: ED50, Inhibition of Locomotor Activity in Mouse. The source says: The effects of representative compounds of the present invention as antipsychotic agents was established by the Mouse Activity and Screen Test Procedure described in Pharmacol. Biochem. Behav. 1978 (8) 97, herein incorporated by reference.
Inhibition of Locomotor Activity in Mouse

The next test has as its target T1, Haloperidol Receptor (Bos taurus, UniProt P20288).
T1 construct: from tissue
Briefly: Haloperidol Receptor Binding (dopaminergic agents). Conditions: read-out: % Inhibition (Haloperidol Receptor Binding). The source says: The method for determining the effectiveness of the compounds of the instant invention as dopaminergic agents is explained in Mol. Pharmacol., 1976 (12) 800 herein incorporated by reference.

Test [2] has as its system Spontaneous Hypertensive Rat. In words: Antihypertensive action, Spontaneous Hypertensive Rat. Conditions: 30 mg/kg, PO. The format is in vivo. The procedure:
The methodology for testing the antihypertensive action of the compounds of the invention is described in Am. J. Med. Sci., 1970 (259)257, herein incorporated by reference. These experiments are considered standard tests in mammals and are indicative of utility for treatment of similar diseases in humans.
Spontaneous Hypertensive Rat (30 mg/kg, PO)

Broadly, the ED50 is the dose that gives a 50% effect, or the effect in half of the subjects. In general, inhibition refers to the share of the control response that was lost under treatment.

T1 sequence (P20288 whole entry): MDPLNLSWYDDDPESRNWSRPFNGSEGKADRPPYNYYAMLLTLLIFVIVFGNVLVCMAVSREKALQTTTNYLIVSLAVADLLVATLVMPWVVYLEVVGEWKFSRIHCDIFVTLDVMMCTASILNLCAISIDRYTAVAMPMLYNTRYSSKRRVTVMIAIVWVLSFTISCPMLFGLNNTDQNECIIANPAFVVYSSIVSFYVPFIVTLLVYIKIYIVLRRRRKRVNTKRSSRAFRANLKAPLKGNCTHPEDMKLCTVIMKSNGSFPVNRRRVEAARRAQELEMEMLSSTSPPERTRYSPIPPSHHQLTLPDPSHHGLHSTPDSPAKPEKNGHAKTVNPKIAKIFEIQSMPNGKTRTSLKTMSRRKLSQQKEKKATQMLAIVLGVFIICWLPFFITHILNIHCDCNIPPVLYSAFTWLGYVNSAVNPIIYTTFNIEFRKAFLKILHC

In the case of `CCCN1CCC=C(c2csc(NC)n2)C1` [N-Methyl-4-(1,2,5,6-tetrahydro-1-propyl-3-pyridinyl)-2-thiazolamine], the ED50 in test [1] is 10 mg/kg.

In the case of `CCN1CCC=C(c2csc(N)n2)C1` [III (double bond) R=R'=H; R"=CH2 CH3, 4-(1,2,5,6-Tetrahydro-1-ethyl-3-pyridinyl)-2-thiazolamine], on Haloperidol Receptor (at 10^-6 M), the inhibition at 1 µM stood at 49%. Also, the ED50 in test [1] was greater than 30 mg/kg.

Turning to `CCCN1CCC=C(c2csc(NC(C)=O)n2)C1` [N-[4-(1,2,5,6-Tetrahydro-1-propyl-3-pyridinyl)-2-thiazolyl]-acetamide], the inhibition at 1 µM on Haloperidol Receptor (at 10^-6 M) stood at 0%. In test [1], the median effective dose (ED50) is 30 mg/kg.

Consider `CC(C)CCN1CCC=C(c2csc(N)n2)C1` [4-[1,2,5,6-Tetrahydro-1-(3-methylbutyl)-3-pyridinyl]-2-thiazolamine], for which the inhibition at 1 µM on Haloperidol Receptor (at 10^-6 M) was 65%. Further, the ED50 in test [1] is 8.7 mg/kg.

For the molecule `CCCCCN1CCC=C(c2csc(NC(C)=O)n2)C1` [N-[4-(1,2,5,6-Tetrahydro-1-pentyl-3-pyridinyl)-2-thiazolyl]acetamide], the inhibition at 1 µM on Haloperidol Receptor (at 10^-6 M) came to 0%. Besides, the median effective dose (ED50) in test [1] amounted to 10 mg/kg.

As for `CCCN1CCCC(c2csc(N)n2)C1` (stereo not drawn) [III (single bond) R=R'=H; R"=(CH2)2 CH3, 4-(1-Propyl-3-piperidyl)-2-thiazolamine], at Haloperidol Receptor, the inhibition at 1 µM stood at 15%. Further, the ED50 in test [1] stood at 10 mg/kg.

With `CC(C)CCN1CCC=C(c2csc(N)n2)C1` [drawing 6], in test [2] (duration up to 10 hours), the “Decrease in Blood Pressure” value is reported as 12-20%. Besides, the “Duration (of decrease in blood pressure)” value in test [2] (of the 12-20% decrease) is on record as “up to 10 hours”.

For `CCCCN1CCC=C(c2csc(N)n2)C1` [III (double bond) R=R'=H; R"=(CH2)3 CH3, 4-(1,2,5,6-Tetrahydro-1-butyl-3-pyridinyl)-2-thiazolamine], the inhibition at 1 µM at Haloperidol Receptor (at 10^-6 M) amounted to 57%. Further, the ED50 in test [1] was found to be 7.3 mg/kg.

For the molecule `CCCCCCN1CCC=C(c2csc(N)n2)C1` [III (double bond) R=R'=H; R"=(CH2)5 CH3, 4-(1,2,5,6-Tetrahydro-1-hexyl-3-pyridinyl)-2-thiazolamine], the inhibition at 1 µM on Haloperidol Receptor (at 10^-6 M) is 88%. Besides, the ED50 in test [1] was greater than 30 mg/kg.

With `CCCCCN1CCC=C(c2csc(NC)n2)C1` [N-methyl-4-(1,2,5,6-tetrahydro-1-pentyl-3-pyridinyl)-2-thiazolamine], in test [1], the ED50 is less than 10 mg/kg.

Take `CCCCCN1CCC=C(c2csc(N(C)C(C)=O)n2)C1` [N-methyl-N-[4-(1,2,5,6-tetrahydro-1-pentyl-3-pyridinyl)-2-thiazolyl[-acetamide]: the ED50 in test [1] amounted to 6.4 mg/kg.

In the case of `CCCN1CCCC(c2csc(NC(C)=O)n2)C1` (stereo not drawn) [N-[4-(1-propyl-3-piperidyl)-2-thiazolyl]acetamide], the inhibition at 1 µM at Haloperidol Receptor (at 10^-6 M) stood at 9%. The ED50 in test [1] was 30 mg/kg.

Consider `CCCN1CCC=C(c2csc(N)n2)C1` [III (double bond) R=R'=H; R"=(CH2)2 CH3, 4-(1,2,5,6-Tetrahydro-1-propyl-3-pyridinyl)-2-thiazolamine], for which, at Haloperidol Receptor (at 10^-6 M), the inhibition at 1 µM is 66%. The ED50 in test [1] amounted to 2.9 mg/kg.

On to `CCCN1CCC=C(c2csc(N(C)C(C)=O)n2)C1` [N-methyl-N-[4-(1,2,5,6-tetrahydro-1-propyl-3-pyridinyl)-2-thiazolyl]-acetamide], for which, in test [1], the ED50 came out at 39 mg/kg.

For the molecule `CCOCCN1CCC=C(c2csc(N)n2)C1` [4-[1-(2-Ethoxyethyl)-1,2,5,6-tetrahydro-3-pyridinyl]-2-thiazolamine], the inhibition at 1 µM on Haloperidol Receptor (at 10^-6 M) was found to be 35%. For the same molecule, the ED50 in test [1] turned out to be 30 mg/kg.

Regarding `CN1CCC=C(c2csc(N)n2)C1` [III (double bond) R=R'=H; R"=CH3, 4-(1,2,5,6-Tetrahydro-1-methyl-3-pyridinyl)-2-thiazolamine], the inhibition at 1 µM at Haloperidol Receptor (at 10^-6 M) was found to be 50%. In addition, the ED50 in test [1] is 30 mg/kg.

`C=CCN1CCC=C(c2csc(N)n2)C1` [III (double bond) R=R'=H; R"=CH2 CH=CH2, 4-(1,2,5,6-Tetrahydro-1-allyl-3-pyridinyl)-2-thiazolamine]: at Haloperidol Receptor (at 10^-6 M), the inhibition at 1 µM came to 40%. In addition, the ED50 in test [1] turned out to be 3 mg/kg.

On to `Nc1nc(C2=CCCN(CCc3ccccc3)C2)cs1` [III (double bond) R=R'=H; R"=(CH2)2 Ph, 4-[1,2,5,6-Tetrahydro-1-(2-phenylethyl)-3-pyridinyl]-2-thiazolamine], for which, at Haloperidol Receptor, the inhibition at 1 µM was determined as 16%. Moreover, the ED50 in test [1] is 18.1 mg/kg.

As for `CCCN1CCC=C(c2csc(N)n2)C1` [drawing 5], the “Decrease in Blood Pressure” value in test [2] (duration 1 hour) is 20%; in test [2] (duration up to 6 hours) it was 10-15%. The “Duration (of decrease in blood pressure)” value is “up to 6 hours” in test [2] (of the 10-15% decrease) and 1 h in test [2] (of the 20% decrease).

Consider `CCCCCN1CCC=C(c2csc(N)n2)C1` [III (double bond) R=R'=H; R"=(CH2)4 CH3, 4-(1,2,5,6-Tetrahydro-1-pentyl-3-pyridinyl)-2-thiazolamine], for which the inhibition at 1 µM at Haloperidol Receptor (at 10^-6 M) amounted to 26%. For the same molecule, in test [1], the ED50 is less than 10 mg/kg.

For `CCCCCCCN1CCC=C(c2csc(N)n2)C1` [III (double bond) R=R'=H; R"=(CH2)6 CH3, 4-(1,2,5,6-Tetrahydro-1-heptyl-3-pyridinyl)-2-thiazolamine], the ED50 in test [1] stood at 10.4 mg/kg.
